The source of these data is BindingDB's records for doi:10.3109/14756366.2012.663362 (Institute for Advanced Studies in Basic Sciences (IASBS), 2013).

This experiment addresses Acetylcholinesterase (Electrophorus electricus, UniProt O42275). Kind of experiment: AChE Inhibition Assay. To be noted: pH 8; 25 °C. The procedure:
Inhibitory activities of synthesized α-oxycarbanilinophosphonates were determined at 25°C by the colorimetric method of Ellman et al. [Ellman et al., Biochem. Pharmacol., 7:88-95]. The assay solution contained 0.1 M phosphate buffer, pH 8, 0.3 mM 5,5'-dithiobis(2-nitrobenzoic acid) (DTNB), 0.125 units of AChE (Sigma Chemical Co. from electric eel (Electrophorous electricus)), and 0.2 mM acetylthiocholine iodide as the substrate in a total volume of 2.5 mL. In order to provide sufficient time for interaction with either PAS and/or active site of the enzyme, particularly in competition with the substrate, the synthesized compounds were added to the assay solution and preincubated with the enzyme for 10 min at 25°C. In order to solubilize the synthesized compounds, the reaction mixture contained 2% ethanol (50 μL in 2.5 mL reaction mixture volume). Control experiments were run and it was seen that no inhibitory effect was exerted on the enzyme by ethanol. The changes in abs

Broadly, the IC50 is the concentration that inhibits the measured activity by half. Read a low IC50 as greater potency.

Chain of Acetylcholinesterase (O42275 whole entry): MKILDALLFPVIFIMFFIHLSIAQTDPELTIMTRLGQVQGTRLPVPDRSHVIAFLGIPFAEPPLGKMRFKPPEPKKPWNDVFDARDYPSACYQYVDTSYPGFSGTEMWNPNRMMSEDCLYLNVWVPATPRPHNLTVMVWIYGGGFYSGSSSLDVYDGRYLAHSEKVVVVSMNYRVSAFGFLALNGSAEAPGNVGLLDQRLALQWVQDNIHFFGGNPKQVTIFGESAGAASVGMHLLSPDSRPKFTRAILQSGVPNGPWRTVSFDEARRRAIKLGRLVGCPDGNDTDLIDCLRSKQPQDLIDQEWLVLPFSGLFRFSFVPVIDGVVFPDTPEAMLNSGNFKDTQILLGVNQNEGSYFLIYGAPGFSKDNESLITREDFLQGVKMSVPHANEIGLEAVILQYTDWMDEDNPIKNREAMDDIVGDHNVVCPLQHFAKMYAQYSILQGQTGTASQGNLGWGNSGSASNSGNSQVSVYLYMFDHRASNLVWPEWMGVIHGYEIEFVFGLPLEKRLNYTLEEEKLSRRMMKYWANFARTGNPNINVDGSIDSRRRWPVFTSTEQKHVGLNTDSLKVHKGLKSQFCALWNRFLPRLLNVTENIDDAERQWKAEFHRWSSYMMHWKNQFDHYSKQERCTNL

`CCOP(=O)(OCC)C(OC(=O)Nc1ccc(C)c(Cl)c1)c1ccc([N+](=O)[O-])cc1` (stereo not drawn) [α-Oxycarbanilinophosphonate, 4i]: the half-inhibitory concentration (IC50) was determined as 7.47 µM. With `CCOP(=O)(OCC)C(OC(=O)Nc1ccccc1)c1ccc(SC)cc1` (stereo not drawn) [α-Oxycarbanilinophosphonate, 4d], the IC50 amounted to 161 µM. In the case of `CCOP(=O)(OCC)C(OC(=O)Nc1ccc(C)c(Cl)c1)c1ccc(Cl)cc1Cl` (stereo not given) [Diethyl[(3-chloro-4-methylanilinocarbonyl)oxy](2,4-dichlorophenyl)methyl phosphonate (4h)] it was 6.36 µM; in that of `CCOP(=O)(OCC)C(OC(=O)NCc1ccccc1)c1cccc2ccccc12` (stereo not drawn) [α-Oxycarbanilinophosphonate, 4l], 418 µM; in that of `CCOP(=O)(OCC)C(/C=C/c1ccccc1[N+](=O)[O-])OC(=O)Nc1ccccc1` (stereo not drawn) [α-Oxycarbanilinophosphonate, 4f], 10.3 µM.
